Test results: US20140335050A1, “METHODS, COMPOSITIONS, AND KITS FOR THE TREATMENT OF CANCER” (The General Hospital Corporation, priority 2011, published 2014)
“Also recorded” adds a separate entry of the source.

What was measured:
Format in all cases: cell-based, human
[1] = test system: U-118 MG glioma cell line; assay: Antibody staining and flow cytometry (intracellular gp100; surface MHC Class I/II); details: for Class I MHC, geometric mean of surface staining (W6/32): U-118
A375 melanoma cell line = assay: Antibody staining and flow cytometry (intracellular Melan-A/MART-1, gp100, TRP-2; surface MHC Class I)
Protocol: (§1) Cells were fixed with 1% formaldehyde, permeabilized with 0.1% saponin, stained with monoclonal antibodies to melanocyte antigens. Antibodies were obtained with specificity for: MART-1 from Vector Labs (Burlingame, Calif.); gp100 HMB45 from DakoCytomation (Carpinteria, Calif.) and then visualized with goat anti-mouse FITC-conjugated secondary antibody from Invitrogen (Fredrick, Md.). The level of EGFP was determined by flow cytometry of unfixed cells that were washed and resuspended in 1×PBS.
(§2) Cells were plated at a density of 1×10^5 in 1 ml of medium in a 24-well plate and cultured for varying times as indicated in results. […] After incubation, cells were collected by trypsinization and then evaluated by flow cytometry.
(§3) Intracellular staining and flow cytometric analyses of cytoplasmic Melan-A/MART-1, and gp100 expression were performed as described previously. Cells were fixed with 1% formaldehyde, permeabilized with 0.1% saponin, stained with monoclonal antibodies to melanocyte antigens. Antibodies were obtained with specificity for: Melan-A/MART-1 from Vector Labs (Burlingame, Calif.); gp100/HMB45 from DakoCytomation (Carpinteria, Calif.) and then visualized with goat anti-mouse FITC-conjugated secondary antibody from Invitrogen (Frederick, Md.). The level of EGFP was determined by flow cytometry of unfixed cells washed and resuspended in 1×PBS. Surface staining of MHC Class I was carried out using the antibody W6/32 on cells harvested with Cell Stripper from MediaTech Inc. (Manassas, Va.) and carried out on ice.
(§4) Cell were seeded at 1×10^6 cells in a T25 flask with 10 ml of media for the 4 day IFN-beta pre-treatments. Cells were then harvested and plated in 24 well plate at 1×10^5 cells per well in 1 ml of media for 3 day treatments.
(§5) For surface staining of HLA Class I and II antigens, cells were harvested using CellStripper™ from Mediatech (Manassas, Va.). All staining steps were performed on ice. Following a first incubation with antibody to Class I (W6/32) or Class II (L243) for 30 minutes. Stained cells were washed twice with cold PBS and then stained with a goat anti-mouse FITC secondary antibody to allow for quantitative analysis by flow cytometry. For evaluation of cytoplasmic antigens, including Melan-A/MART-1 and gp100, cells were first fixed in paraformaldehyde and permeabilized with saponin as previously described. Staining for cytoplasmic antigens was carried out at room temperature (22° C.).

MUX melanoma cell line = assay: as above; details: MUX
Protocol: as §1, §2, §3, §4, §5

[2] = test system: MU89 MART::EGFP cell line; assay: Melan-A/MART-1 promoter-driven EGFP reporter, kinetics by flow cytometry; details: MU89 MART::EGFP (FIG. 11)
Protocol: FIG. 11 is a set of four graphs showing the kinetics of Melan-A/MART-1 increase. […] The same number of cells per well were plated in each well of a 24 well plate and drug was added on day zero. Each day cells were collected and assayed for that time point. Control untreated cells are shown for comparison. The data are from one representative experiment.
A kinetic analysis was performed to determine the effect of Hsp90 inhibition on Melan-A/MART-1 promoter activity over time. […] Reporter activity increases steadily for the first 72 hours of Hsp90 inhibition, and then plateaus. The need for continued presence of Hsp90 inhibitors in order for them to be effective (i.e. whether the drug can be removed after short exposure, or whether it must it be continually present) was assessed. […] To achieve full signal enhancement, it is desirable to retain the drug for at least 48 hours, after which the effect remains constant or slightly decreases.
The generation and application of EGFP reporter cells has been previously described. Briefly, a 1200 base pair human genomic DNA segment encompassing the Melan-A/MART-1 promoter was used to generate a construct driving expression of the EGFP reporter gene. Stable transfectants with this construct were generated in the low-antigen cell line A375 and the high-antigen line MM96L+ and MU89. The EGFP expression response patterns of these cells to IFN-beta and MAP kinase inhibitors recapitulates the antigen up-regulation of endogenous Melan-A/MART-1 induced by these agents.
as §3

MU89 melanoma cell line = assay: Antibody staining and flow cytometry (intracellular Melan-A/MART-1, gp100, TRP-2; surface MHC Class I/II)
U-87 MG glioma cell line = assay: Antibody staining and flow cytometry (intracellular gp100; surface MHC Class I)
Protocol: as §1, §2, §3

[3] = U118 cells, Table 20, single agent or simultaneous combination
[4] = 3 days, IFN-beta 5000 Units/ml, 17-AEP 0.5, PU-H71 0.15, CCT018159 2.5 μg/ml
[5] = 3 days, IFN-beta 5000 Units/ml, 17-AEP 1.0, PU-H71 0.3, CCT018159 10.0 μg/ml
[6] = MU89, 3 days, IFN-beta 5000 Units/ml, 17-AEP 1.0, PU-H71 0.3, CCT018159 10.0 μg/ml
[7] = MU89, three days, IFN-β 5000 Units/ml, IFN-γ 100 ng/ml, PU-H71 0.3 mg/ml
[8] = MU89 cells, Table 20, single agent or simultaneous combination
[9] = U-87 MG, 3 days, IFN-beta 5000 Units/ml, 17-AEP 0.5, PU-H71 0.3, CCT018159 5.0 μg/ml

## CC(C)NCCCn1c(Sc2cc3c(cc2I)OCO3)nc2c(N)ncnc21 [PU-H71]
[1]; Giloma-118, three days, IFN-β 5000 Units/ml, IFN-γ 100 ng/ml, PU-H71 0.3 mg/ml
  MHC Class II, geometric mean of surface staining (L2443): 4
[1]; Giloma-118, three days, IFN-β 5000 Units/ml, IFN-γ 100 ng/ml, PU-H71 0.3
  MHC Class I, geometric mean of surface staining (W6/32): 88
[1]; U118, co-treatment with IFN-gamma and PU-H71
  Class II induction, combination: prevented
[1]; U118, single agent
  L243 (MHC Class II surface staining): 4.1
[1]; [3]
  L243 (MHC Class II surface staining): 6.3
  W6/32 (MHC Class I surface staining): 135.7
[1]; 4 day IFN-β pre-treatment (5000 Units/ml), then 3 days with fresh IFN-β, with PU-H71 0.3 where labelled (label IFN-β: no inhibitor)
  Class I MHC, geometric mean of surface staining (W6/32): 184
[1]; 4 day IFN-β pre-treatment (5000 Units/ml), then 3 days without IFN-β, with PU-H71 0.3 where labelled (label IFN-β: no inhibitor)
  Class I MHC, geometric mean of surface staining (W6/32): 224
[1]; single agent for 3 days, no IFN-β pre-treatment, IFN-β 5000 Units/ml, PU-H71 0.3
  Class I MHC, geometric mean of surface staining (W6/32): 138
[1]; U-118 MG, 3 days, IFN-beta 5000 Units/ml, 17-AEP 1.0, PU-H71 0.3, CCT018159 10.0 μg/ml
  gp100, geometric mean of intracellular staining: 63
[1]; U-118 glioma, three days, IFN-β 5000 Units/ml, PU-H71 0.075-0.3
  MHC Class I, geometric mean of surface staining (W6/32): 88
A375 melanoma cell line; [4]
  Class I, geometric mean of surface staining (W6/32): 71
  MART-1, geometric mean of intracellular staining: 11
  TRP-2, geometric mean of intracellular staining: 26
  gp100, geometric mean of intracellular staining: 24
A375 melanoma cell line; 4 day IFN-β pre-treatment (5000 Units/ml), then 3 days with fresh IFN-β and the labelled HSP90 inhibitor (label IFN-β: no inhibitor), 17-AEP 0.5, PU-H71 0.15, CCT018159 2.5
  MHC Class I, geometric mean of surface staining (W6/32): 226
A375 melanoma cell line; 4 day IFN-β pre-treatment (5000 Units/ml), then 3 days without IFN-β with the labelled HSP90 inhibitor (label IFN-β: no inhibitor), 17-AEP 0.5, PU-H71 0.15, CCT018159 2.5
  MHC Class I, geometric mean of surface staining (W6/32): 174
A375 melanoma cell line; single agent for 3 days, no IFN-β pre-treatment, IFN-β 5000 Units/ml, 17-AEP 0.5, PU-H71 […], CCT018159 2.5
  MHC Class I, geometric mean of surface staining (W6/32): 131
A375 melanoma cell line; three days, IFN-β 5000 Units/ml, 17-AEP 0.5, PU-H71 […], CCT018159 2.5
  MHC Class I, geometric mean of surface staining (W6/32): 71
MUX melanoma cell line; [5]
  Class I, geometric mean of surface staining (W6/32): 212
  MART-1, geometric mean of intracellular staining: 19
  TRP-2, geometric mean of intracellular staining: 41
  gp100, geometric mean of intracellular staining: 32
MUX melanoma cell line; 4 day IFN-β pre-treatment (5000 Units/ml), then 3 days with fresh IFN-β and the labelled HSP90 inhibitor (label IFN-β: no inhibitor), 17-AEP 1, PU-H71 0.3, CCT018159 10 mg/ml
  MHC Class I, geometric mean of surface staining (W6/32): 579
MUX melanoma cell line; 4 day IFN-β pre-treatment (5000 Units/ml), then 3 days without IFN-β with the labelled HSP90 inhibitor (label IFN-β: no inhibitor), 17-AEP 1, PU-H71 0.3, CCT018159 10 mg/ml
  MHC Class I, geometric mean of surface staining (W6/32): 477
MUX melanoma cell line; single agent for 3 days, no IFN-β pre-treatment, IFN-β 5000 Units/ml, 17-AEP 1 μg/ml, PU-H71 0.3 μg/ml, CCT018159 10 μg/ml
  MHC Class I, geometric mean of surface staining (W6/32): 282
MUX melanoma cell line; three days, IFN-β 5000 Units/ml, 17-AEP 1 μg/ml, PU-H71 0.3 μg/ml, CCT018159 10 μg/ml
  MHC Class I, geometric mean of surface staining (W6/32): 212
[2]
  Time at which the fluorescent reporter signal is significantly enhanced (as early as): 2 days
MU89 melanoma cell line; [6]
  Class I, geometric mean of surface staining (W6/32): 66
  MART-1, geometric mean of intracellular staining: 147
  TRP-2, geometric mean of intracellular staining: 214
  gp100, geometric mean of intracellular staining: 381
MU89 melanoma cell line; MU89, 4 day IFN-β pre-treatment (5000 Units/ml), then 3 days with fresh IFN-β and the labelled HSP90 inhibitor (label IFN-β: no inhibitor), 17-AEP 1, PU-H71 0.3, CCT018159 10 mg/ml
  MHC Class I, geometric mean of surface staining (W6/32): 390
MU89 melanoma cell line; MU89, 4 day IFN-β pre-treatment (5000 Units/ml), then 3 days without IFN-β with the labelled HSP90 inhibitor (label IFN-β: no inhibitor), 17-AEP 1, PU-H71 0.3, CCT018159 10 mg/ml
  MHC Class I, geometric mean of surface staining (W6/32): 307
MU89 melanoma cell line; MU89, IFN-beta pre-treatment, then PU-H71 for 3 days (FIG. 22)
  Class I antigen induction, sequential treatment: synergistically enhanced; also recorded: far exceeded what was achieved with either drug alone
MU89 melanoma cell line; MU89, IFN-gamma for 3 days, subsequently PU-H71 (FIG. 23)
  Class II antigen level, sequential treatment: significantly greater than that achieved with IFN-gamma alone
MU89 melanoma cell line; MU89, single agent for 3 days, no IFN-β pre-treatment, IFN-β 5000 Units/ml
  MHC Class I, geometric mean of surface staining (W6/32): 75
MU89 melanoma cell line; MU89, three days, IFN-β 5000 Units/ml
  MHC Class I, geometric mean of surface staining (W6/32): 66
MU89 melanoma cell line; [7]
  MHC Class I, geometric mean of surface staining (W6/32): 99
  MHC Class II, geometric mean of surface staining (L2443): 43
MU89 melanoma cell line; [8]
  L243 (MHC Class II surface staining): 4.1
  W6/32 (MHC Class I surface staining): 72.1
MU89 melanoma cell line; MU89 cells, Table 21, no pre-treatment, treatment as labelled
  L243 (MHC Class II surface staining): 5
MU89 melanoma cell line; MU89 cells, Table 21, pre-treatment IFN-G (3 days), then treatment as labelled
  L243 (MHC Class II surface staining): 338
MU89 melanoma cell line; MU89 cells, Table 21, substance given as pre-treatment (3 days) only, no subsequent treatment
  L243 (MHC Class II surface staining): 2
MU89 melanoma cell line; MU-89, Hsp90 inhibitor together with IFN-gamma
  Class II induction by IFN-gamma, combination: ablation of the IFN-gamma induction of Class II antigen
MU89 melanoma cell line; MU-89, PU-H71 together with IFN-beta
  Class I expression, combination: additive effect
MU89 melanoma cell line; MU-89, PU-H71 together with IFN-gamma
  Class I induction by IFN-gamma, combination: not further enhanced
MU89 melanoma cell line; MU-89, single agent
  L243 (MHC Class II surface staining): 4.5
U-87 MG glioma cell line; [9]
  Class I, geometric mean of surface staining (W6/32): 53
  gp100, geometric mean of intracellular staining: 66
U-87 MG glioma cell line; U-87 glioma, three days, IFN-β 5000 Units/ml, PU-H71 0.075-0.3
  MHC Class I, geometric mean of surface staining (W6/32): 71
